Measurements: patent US12351557B2, “Chemical compound manufacture, new salt form, and therapeutic uses thereof” (Eustralis Pharmaceuticals Limited (Trading As Pressura …, priority 2018, dated 2025)
Where a name gives a salt, the structure may show the parent alone. Read-outs that look alike come from different tables or passages of the source. One block for each compound: values may come before it.

What was measured:
[1] = Qualitative solubility of free base in 50 solvents; format: physicochemical; settings: for Qualitative solubility in solvents: organic solvents, 50 solvents studied
From the text: The solubility of compound of Formula (1) was first qualitatively studied in 50 solvents. In all SAS experiments, the amorphous free base of compound of formula (1) was obtained after evaporation of the experiments.

pKa estimate = format: physicochemical; settings: free base
[2] = Hydroscopicity (water sorption at 90% RH); format: physicochemical
[3] = Polymorphism risk assessment; settings: 2HCl salt physicochemical summary
Method: Decomposition/melting range temperature and presence of solvate molecules are estimated from thermal analyses. The polymorphism risk was assessed base on the number of identified forms during this work and reproducibility of the salt screen target patterns.

[4] = Solubility of 2HCl salt in solvents; format: physicochemical
Method: A summary of the physicochemical characteristics of 2HCl salt of Compound of Formula (1) is provided below.
Solubility: very soluble in water ([…]0.2 mg/μL), freely soluble in ethanol (0.1-0.2 mg/μL), sparingly soluble in 1-propanol and acetonitrile (0.01-0.03 mg/μL).

[5] = pH of solution in purified water; format: physicochemical; settings: 5 mg/mL solution in purified water
Method: pH: 2 to 3 (5 mg/mL solution in purified water).

[6] = Stability study, samples stored at 40° C./75% RH; format: physicochemical

- Qualitative solubility in solvents [1]: very soluble or soluble in many solvents
- Behaviour of water as solvent ([1]; water): antisolvent
- pKa (pKa estimate; read-out: pKa 1 (estimate)): 7.54
- pKa (pKa estimate; read-out: pKa 2 (estimate)): 4.05
Compound: Cc1ccccc1-c1cc(N2CCN(C)CC2)ncc1C(=O)N(C)Cc1cc(C(F)(F)F)cc(C(F)(F)F)c1 [Compound of Formula (1), N-{[3,5-Bis(trifluoromethyl)phenyl]methyl}-N-methyl-4-(2-methylphenyl)-6-(4-methyl-1-piperazinyl)-3-pyridinecarboxamide]
- Qualitative solubility in solvents ([1]; listed as free base): very soluble or soluble in almost all solvents

- Hydroscopicity (Water sorption at 90% RH) [2]: 3.2%
- Polymorphism [3]: Not detectable
- Solubility in 1-propanol ([4]; 1-propanol, sparingly soluble): 0.01 to 0.03 mg/µL
- Solubility in acetonitrile ([4]; acetonitrile, sparingly soluble): 0.01 to 0.03 mg/µL
- Solubility in ethanol ([4]; ethanol, freely soluble): 0.1 to 0.2 mg/µL
- pH [5]: 2 to 3
- Appearance (white to yellow powder) ([6]; 0 months): Complies
- Assay (% "as is") ([6]; 0 months): 95.0%
- Assay (% anhydrous) ([6]; 0 months): 100.0%
- Related Substances: Any other unknown ([6]; 0 months): RRT 0.89: 0.007%
- Related Substances: Intermediate 3 ([6]; 0 months): Int 3: 0.69%
- Related Substances: RRT - 0.89 ([6]; 0 months): RRT 0.85: 0.34%
- Related Substances: RRT - 1.27 ([6]; 0 months): RRT 1.27: 0.27%
- Related Substances: Total Impurities ([6]; 0 months): 1.37%
- Water Content ([6]; 0 months): 5.0%
- pH ([6]; 0 months): 2.31
- Appearance (white to yellow powder) ([6]; 1 month): Complies
- Assay (% "as is") ([6]; 1 month): 94.8%
- Assay (% anhydrous) ([6]; 1 month): 99.8%
- Related Substances: Any other unknown ([6]; 1 month): RRT 0.90: 0.07%
- Related Substances: Intermediate 3 ([6]; 1 month): Int 3: 0.71%
- Related Substances: RRT - 0.89 ([6]; 1 month): RRT 0.89: 0.36%
- Related Substances: RRT - 1.27 ([6]; 1 month): RRT 1.28: 0.27%
- Related Substances: Total Impurities ([6]; 1 month): 1.41%
- Water Content ([6]; 1 month): 4.99%
- pH ([6]; 1 month): 2.39
- Appearance (white to yellow powder) ([6]; 3 months): Complies
- Assay (% "as is") ([6]; 3 months): 94.5%
- Assay (% anhydrous) ([6]; 3 months): 100.1%
- Related Substances: Any other unknown ([6]; 3 months): RRT 0.91: 0.05%
- Related Substances: Intermediate 3 ([6]; 3 months): Int 3: 0.71%
- Related Substances: RRT - 0.89 ([6]; 3 months): RRT 0.90: 0.36%
- Related Substances: RRT - 1.27 ([6]; 3 months): RRT 1.27: 0.26
- Related Substances: Total Impurities ([6]; 3 months): 1.38%
- Water Content ([6]; 3 months): 5.58%
- pH ([6]; 3 months): 2.33
- Appearance (white to yellow powder) ([6]; 6 months): Complies
- Assay (% "as is") ([6]; 6 months): 94.6%
- Assay (% anhydrous) ([6]; 6 months): 99.7%
- Related Substances: Any other unknown ([6]; 6 months): RRT 0.91: 0.06%
- Related Substances: Intermediate 3 ([6]; 6 months): Int 3: 0.71%
- Related Substances: RRT - 0.89 ([6]; 6 months): RRT 0.90: 0.35%
- Related Substances: RRT - 1.27 ([6]; 6 months): RRT 1.27: 0.27%
- Related Substances: Total Impurities ([6]; 6 months): 1.39%
- Water Content ([6]; 6 months): 5.17%
- pH ([6]; 6 months): 2.47
- Appearance (white to yellow powder) ([6]; Initial Release): Complies
- Assay (% "as is") ([6]; Initial Release): 98.3%
- Assay (% anhydrous) ([6]; Initial Release): 99.3%
- Related Substances: Intermediate 3 ([6]; Initial Release): Int 3: 0.71%
- Related Substances: RRT - 0.89 ([6]; Initial Release): RRT 0.87: 0.35%
- Related Substances: RRT - 1.27 ([6]; Initial Release): RRT 1.27: 0.28%
- Related Substances: Total Impurities ([6]; Initial Release): 1.34%
- Water Content ([6]; Initial Release): 1.0%
- pH ([6]; Initial Release): 2.31
Compound: Cc1ccccc1-c1cc(N2CCN(C)CC2)ncc1C(=O)N(C)Cc1cc(C(F)(F)F)cc(C(F)(F)F)c1 [Compound of formula (1) 2HCl salt]
